Measured values taken from US20070009537A1, “Antimicrobial activity of antibodies producing reactive oxygen species” (priority 2002, published 2007).
“Also recorded” adds a separate entry of the source. Where two headings read alike, the source gives them in different places.

Assays:
[1] = Decomposition of O3 under aqueous conditions; format: physicochemical; details: PBS pH 7.4, 22° C., OD 260 nm
Protocol: The rate of decomposition of O3 under the aqueous conditions employed was measured by the following method. Ozone, produced by a passage of O2 through a Polymetrics ozonizer, was bubbled for 2 min through a phosphate buffered saline (PBS, pH 7.4) solution in a quartz cuvette (1 cm^2) at room temperature. The time-dependent change in optical density was then measured at 260 nm (ε=2,700 M^−1 cm^−1) for at least 5 half lives in a Hitachi u.v./vis spectrophotometer equipped with a thermostatted rack at 22° C. See Takeuchi et al., Anal. Chim. Acta. 230, 183 (1990). […] The sensitivity of the assay was limited by spectrophotometer accuracy to±0.1% (˜1 μM) of the OD at t=0.

E. coli = test: Bactericidal assay (CFU recovery), strain not specified; format: cell-based
Protocol: (§1) In a typical experiment, a culture of E. coli (in log phase growth, OD600=0.2-0.3) was repeatedly pelleted (3×3,500 rpm) and resuspended in PBS (pH 7.4). The PBS suspended cells were then added to glass vials and cooled to 4° C. Hematoporphyrin IX (40 μM) and antibody (20 μM) were added and the vials were either placed on a light box (visible light, 2.8 mW cm^−2) or in the dark at 4° C. and incubated for 1 h. Viability was determined by recovery of colony forming units (CFUs) on agar plates. Each experiment was performed at least in duplicate.
as §1, with “washed in PBS by pelleting” for “pelleted”, “rpm) the cells” for “rpm)”, “resuspending them” for “resuspended”

S. typhimurium = test: Bactericidal assay (CFU recovery); format: cell-based, Salmonella typhimurium
Protocol: In a typical experiment, a culture of S. typhimurium in log phase growth at OD600=0.2-0.3 was repeatedly pelleted (3×3,500 rpm) and resuspended in PBS (pH 7.4). The PBS suspended cells were then added to glass vials and cooled to 4° C. hematoporphyrin IX solution (40 μM) and antibody (20 μM) were added. The vials were placed either on a light box (visible light, 2.8 mW cm^−2) or in the dark at 4° C. Incubation was for 1 hour. Viability was determined by recovery of colony forming units (CFUs) on agar plates. Each experiment was performed with at least duplicate samples.

[2] = H2O2 production by UV irradiation of antibody/protein samples (Amplex Red assay); format: biochemical
Protocol: Aliquots (10 μL) were removed at timed intervals throughout the assay. H2O2 concentration was determined by the amplex red method. Each data point is reported as the mean±SEM of at least duplicate measurements: • polyclonal (poly) immunoglobulin (Ig) G, human; O poly-IgG, horse; □ poly-IgG, sheep; ∇ monoclonal (m) IgG (WD1-6G6), murine; Δ poly-IgM, human; ⋄ mIgG (92H2), murine; ▪ β-galactosidase (β-gal); ▴ chick ovalbumin (OVA); ▾ α-lactalbumin (α-lact); ♦ bovine serum albumin (BSA).
An aliquot (20 μl) from the protein solution was removed and added into a well of a 96-well microtiter plate (Costar) containing reaction buffer (80 μl). Working solution (100 μl/400 μM Amplex Red reagent 1/2 units/ml horseradish peroxidase) was then added, and the plate was incubated in the dark for 30 min. The fluorescence of the well components was then measured using a CytoFluor Multiwell Plate Reader (Series 4000, PerSeptive Biosystems, Framingham, Mass.; Ex/Em: 530/580 nm). The hydrogen peroxide concentration was determined using a standard curve. All experiments were run in duplicate, and the rate is quoted as the mean of at least two measurements.
The resultant solution was transferred to a glass, screw-cap vial and irradiated with UV light for 30 min. The concentration of H2O2 was determined after 30 min.

E. coli XL1-blue = test: Bactericidal assay (CFU recovery); format: cell-based
Protocol: as §1
as §1, with “washed in PBS by pelleting” for “pelleted”, “rpm) the cells” for “rpm)”, “resuspending them” for “resuspended”

E. coli O112a,c = format: cell-based; details: 40 μM, white light 2.7 mW cm^−2, 1 h, PBS pH 7.4, 4±1° C.
Protocol: as §1
as §1, with “washed in PBS by pelleting” for “pelleted”, “rpm) the cells” for “rpm)”, “resuspending them” for “resuspended”

Molecule: O=[O+][O-] [Clone O3, ozone]
- half-life (t½) [1]: 66 s
- half-life (t½) ([1]; listed as ozone): 6 s

Molecule: bovine serum albumin: non-specific protein control
- bacterial killing (E. coli; 20 μM): no bacterial killing
- bacterial killing (S. typhimurium; 20 μM): no bacterial killing

Molecule: O=C(O)CN(CCN(CC(=O)O)CC(=O)O)CC(=O)O [EDTA]
- effect on survival of bacteria in the assay system (E. coli; 2 mM): no effect on the survival of bacteria
- effect on survival of bacteria in the assay system (S. typhimurium; 2 mM): no effect on the survival of bacteria

Molecule: N[C@@H](Cc1c[nH]c2ccccc12)C(=O)O [tryptophan]
- H2O2 production during photo-oxidation ([2]; near-UV irradiation, tryptophan 20 μM): ca. 0.5 mole equivalents

Molecule: catalase
- protection against the bactericidal activity of non-specific antibodies (E. coli XL1-blue; FIG. 17A, catalase 13 mU/mL): complete protection
- effect on bactericidal activity of non-specific antibodies (E. coli; catalase 13 mU/mL, 11 non-specific murine monoclonal antibodies): completely attenuated

Molecule: CC1=C(CCC(=O)O)c2cc3[nH]c(cc4nc(cc5[nH]c(cc1n2)c(C)c5C(C)O)C(C)=C4C(C)O)c(C)c3CCC(=O)O (centres unmarked) [hematoporphyrin IX]
- bactericidal activity of sensitizer alone (E. coli XL1-blue; 40 μM, white light 2.7 mW cm^−2, 1 h, PBS pH 7.4, 4±1° C.): negligible bactericidal activity
- bactericidal activity of sensitizer alone (E. coli O112a,c): negligible bactericidal activity

Molecule: chick ovalbumin: chick-egg ovalbumin
- ability to reduce 1O2 (produce reactive oxygen species from singlet oxygen), panel of other proteins [2]: one of the most efficient proteins at reducing ^1O2

Molecule: β-galactosidase: most efficient non-immunoglobulin protein at generating H2O2
- H2O2 photo-production ([2]; near-UV irradiation, from its 39 Trp residues): 5.9 mol eq.

Molecule: superoxide dismutase: enzyme from Sigma, non-immunoglobulin control protein
- ability to reduce 1O2 (produce reactive oxygen species from singlet oxygen), panel of other proteins [2]: do not reduce ^1O2; also recorded: does not reside
- rate of hydrogen peroxide generation ([2]; superoxide dismutase irradiated in PBS): the same as irradiation of PBS alone

B1: RNase A: ribonuclease, non-immunoglobulin control protein (protein, UniProt P61823 27-150, looked up)
Ribonuclease pancreatic: KETAAAKFERQHMDSSTSAASSSNYCNQMMKSRNLTKDRCKPVNTFVHESLADVQAVCSQKNVACKNGQTNCYQSYSTMSITDCRETGSSKYPNCAYKTTQANKHIIVACEGNPYVPVHFDASV
- ability to reduce 1O2 (produce reactive oxygen species from singlet oxygen), panel of other proteins [2]: do not reduce ^1O2
- ability to reduce 1O2 (produce reactive oxygen species from singlet oxygen), panel of other proteins ([2]; listed as RNaseA): does not reside
